From PubChem BioAssay AID2060487 (Molecular Pharmacology Branch, DTP, NCI, 2025)
pIC50: −log10 of the molar value. Values joined by “and” are separate entries in the source; they are usually repeats but may differ in a detail not shown here. Identical values can stand only once.

Test system: 997537-175-T-J1-PDC complex spheroid viability
Test: Anticancer human tumor 997537-175-T-J1-PDC patient-derived colon adenocarcinoma cell line growth inhibition [GQUAD]
Settings: for viability, T/C: stronger effect = lower value; active means viability on the fitted dose curve at most 10% of control; inactive means the rest
Excerpt: DNA G-quadruplex Stabilizer Agents in Combinations in Complex Spheroids
A high-throughput screen of multi-cell type tumor spheroids was designed to identify active combinations of DNA G-quadruplex stabilizer agents and targeted small molecules. Complex spheroids include a stromal component modeled by human endothelial cells (HUVEC) and fibroblasts modeled by human mesenchymal stem cells (MSCs). The concentration ranges selected for each drug and investigational agent were based upon clinically achievable concentrations if the clinical Cmax of the agent was known.
Compounds. The drugs and investigational agents: pidnarulex (CX-5461; NSC782164), APTO-253 (NSC789042), BRACO-19 (NSC847499), peposertib (NSC802822), ceralasertib (NSC780249), elimusertib (NSC800525), camonsertib (NSC841442), AZD-1390 (NSC803789), olaparib (NSC753686), talazoparib (NSC767125), ART-558 (NSC835418), sotorasib (NSC818433), MRTX-1133 (NSC836407), SN-38 (NSC673596), topotecan (NSC609699), etoposide (NSC141540), doxorubicin (NSC123127), gemcitabine (NSC613327), 5-fluorouracil (NSC19893), paclitaxel (NSC125973), vemurafenib (NSC761431), panobinostat (NSC761190), R-306465 (JNJ-16241199; NSC773264), adavosertib (NSC754352), TP-3654 (NSC805149), carboplatin (NSC241240), KSQ-4279 (NSC840948), and staurosporine (NSC755774) were obtained from the National Cancer Institute (NCI) Developmental Therapeutics Program Chemical Repository (34). The FDA-approved anticancer drug set is available from the NCI Developmental Therapeutics Program. […] The stock solutions were prepared in dimethyl sulfoxide (DMSO, Sigma-Aldrich, St. Louis, MO, cat. D2650) at 800-fold the tested concentration and stored at -70 degrees C prior to their use. All drugs and investigational agents were tested over a range starting from a high concentration at or near the clinical Cmax and decreasing in half-log increments. If the clinical Cmax for an agent had not been determined, the highest concentration tested was 10 microM.
2.3 Cell Culture. All cells were maintained in an incubator at 37 degrees C and 5% CO2 with 95% humidity. The PDC lines were cultured according to standard operating procedures established by the NCI PDMR. All PDCs were thawed and cultured in Matrigel-coated flasks prepared with a working solution of 1X Ham's F-12 nutrient mix, without supplementation (Invitrogen, cat. 11765054), 100 U/mL penicillin-streptomycin (Invitrogen, cat. 15140122), and 2.5% Matrigel (Corning Inc., cat. 354248) for the first three passages. The 857933-349-R-J2-PDC line was cultured in 6C/Colon 1B media, which includes advanced DMEM/F-12 (Thermo Fisher Scientific, cat. 12634028), 10 mM HEPES (Thermo Fisher Scientific, cat. 15630080), 1X GlutaMAX supplement (Thermo Fisher Scientific, cat. 35050061), 0.1 mg/mL primocin (InvivoGen, cat. ant-pm-2), 10% defined fetal bovine serum, heat inactivated (HyClone Laboratories Inc., cat. SH30070.03HI), 50% L-WRN conditioned media (ATCC, cat. CRL-3276), 1.25 mM N-Acetyl-L-cysteine (Sigma-Aldrich, cat. A9165), 10 mM nicotinamide (Sigma-Aldrich, cat. N0636), 1X B-27 supplement (Thermo Fisher Scientific, cat. 17504044), 1X N-2 supplement (Thermo Fisher Scientific, cat. 17502048), 10 microM Y-27632 dihydrochloride (Tocris Bioscience, cat. 1254), and 50 ng/mL human EGF recombinant protein (Thermo Fisher Scientific, cat. PHG0311). The 485176-168-R4-J1-PDC line was cultured in Panc media, which includes all 6C/Colon 1B media components plus 100 ng/mL human FGF-10 (Thermo Fisher Scientific, cat. 100-26), 500 nM SB-431542 (Selleckchem, cat. S1067), and gastrin (Tocris, cat. 3006).
[…]
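Further: spheroids exposed to the agents for 7 days.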

C=CC(=O)N1CCN(c2nc(=O)n(-c3c(C)ccnc3C(C)C)c3nc(-c4c(O)cccc4F)c(F)cc23)C(C)C1 (stereo unspecified) + Cc1cnc(CNC(=O)c2c(=O)c3ccc(N4CCCN(C)CC4)nc3n3c2sc2ccccc23)cn1
inactive: viability, T/C (second compound 0.0316 µM, first compound 0.0316 µM) 102% | viability, T/C (second compound 0.0316 µM, first compound 0.1 µM) 90.1% | viability, T/C (second compound 0.0316 µM, first compound 0.316 µM) 93.8% | viability, T/C (second compound 0.0316 µM, first compound 1 µM) 71.5% | viability, T/C (second compound 0.0316 µM, first compound 3.16 µM) 77% | viability, T/C (second compound 0.0316 µM, first compound 10 µM) 87.7% | viability, T/C (second compound 0.1 µM, first compound 0.0316 µM) 98.8% | viability, T/C (second compound 0.1 µM, first compound 0.1 µM) 77.7% | viability, T/C (second compound 0.1 µM, first compound 0.316 µM) 87.5% | viability, T/C (second compound 0.1 µM, first compound 1 µM) 64.5% | viability, T/C (second compound 0.1 µM, first compound 3.16 µM) 102% | viability, T/C (second compound 0.1 µM, first compound 10 µM) 91.4% | viability, T/C (second compound 0.316 µM, first compound 0.0316 µM) 84.7% | viability, T/C (second compound 0.316 µM, first compound 0.1 µM) 85% | viability, T/C (second compound 0.316 µM, first compound 0.316 µM) 85.4% | viability, T/C (second compound 0.316 µM, first compound 1 µM) 94.9% | viability, T/C (second compound 0.316 µM, first compound 3.16 µM) 89.4% | viability, T/C (second compound 0.316 µM, first compound 10 µM) 90.4% | viability, T/C (second compound 1 µM, first compound 0.0316 µM) 93.7% | viability, T/C (second compound 1 µM, first compound 0.1 µM) 100% | viability, T/C (second compound 1 µM, first compound 0.316 µM) 99% | viability, T/C (second compound 1 µM, first compound 1 µM) 95% | viability, T/C (second compound 1 µM, first compound 3.16 µM) 102% | viability, T/C (second compound 1 µM, first compound 10 µM) 99.2% | viability, T/C (second compound 3.16 µM, first compound 0.0316 µM) 68.9% | viability, T/C (second compound 3.16 µM, first compound 0.1 µM) 115% | viability, T/C (second compound 3.16 µM, first compound 0.316 µM) 96.5% | viability, T/C (second compound 3.16 µM, first compound 1 µM) 102% | viability, T/C (second compound 3.16 µM, first compound 3.16 µM) 103% | viability, T/C (second compound 3.16 µM, first compound 10 µM) 94.4% | viability, T/C (second compound 10 µM, first compound 0.0316 µM) 84.1% | viability, T/C (second compound 10 µM, first compound 0.1 µM) 83.5% | viability, T/C (second compound 10 µM, first compound 0.316 µM) 114% | viability, T/C (second compound 10 µM, first compound 1 µM) 87.7% | viability, T/C (second compound 10 µM, first compound 3.16 µM) 95.3% | viability, T/C (second compound 10 µM, first compound 10 µM) 118%
< 5.00: pIC50 (curve of first compound, second compound 0.0316 µM) | pIC50 (curve of first compound, second compound 0.1 µM) | pIC50 (curve of first compound, second compound 0.316 µM) | pIC50 (curve of first compound, second compound 1 µM) | pIC50 (curve of first compound, second compound 3.16 µM) | pIC50 (curve of first compound, second compound 10 µM)

CC(C)n1c(=O)n(C)c2cnc3cc(F)c(-c4ccc(OCCCN5CCCCC5)nc4)cc3c21
inactive: viability, T/C (compound 0.0316 µM) 97.6% and 103% and 97% | viability, T/C (compound 0.1 µM) 90.3% and 99.9% and 82.4% | viability, T/C (compound 0.316 µM) 110% and 106% and 99.8% | viability, T/C (compound 1 µM) 107% and 99.2% and 103% | viability, T/C (compound 3.16 µM) 83.5% and 78.7% and 101% | viability, T/C (compound 10 µM) 83.4% and 93.4% and 92%
< 5.00: pIC50 (curve of compound)

CC(=O)O[C@H]1C(=O)[C@@]2(C)[C@H]([C@H](OC(=O)c3ccccc3)[C@]3(O)C[C@H](OC(=O)[C@H](O)[C@@H](NC(=O)c4ccccc4)c4ccccc4)C(C)=C1C3(C)C)[C@]1(OC(C)=O)CO[C@@H]1C[C@@H]2O
inactive: viability, T/C (compound 0.0316 µM) 104% and 77.3% and 50.1% | viability, T/C (compound 0.1 µM) 92.5% and 40.4% and 45.4% | viability, T/C (compound 0.316 µM) 91.8% and 22.7% and 36.3% | viability, T/C (compound 1 µM) 74.7% and 34.4% and 39.1% | viability, T/C (compound 3.16 µM) 53.2% and 23.9% and 28.3%
0.36% and 20.5% and 22%: viability, T/C (compound 10 µM)

CCCS(=O)(=O)Nc1ccc(F)c(C(=O)c2c[nH]c3ncc(-c4ccc(Cl)cc4)cc23)c1F
inactive: viability, T/C (compound 0.0316 µM) 98.4% and 98.6% and 86.2% | viability, T/C (compound 0.1 µM) 99.3% and 95.1% and 77.8% | viability, T/C (compound 0.316 µM) 97.4% and 68.8% and 65.1% | viability, T/C (compound 1 µM) 89.6% and 71.8% and 53% | viability, T/C (compound 3.16 µM) 45.4% and 56.1% and 52.3% | viability, T/C (compound 10 µM) 34.9% and 24.1% and 25%
5.55 and 5.50 and 5.75: pIC50 (curve of compound)

Cn1ncnc1[C@H]1c2n[nH]c(=O)c3cc(F)cc(c23)N[C@@H]1c1ccc(F)cc1
< 6.50: pIC50 (curve of compound)
inactive: viability, T/C (compound 0.000999 µM) 91.9% and 91.2% and 104% | viability, T/C (compound 0.00316 µM) 89.7% and 92.9% and 86% | viability, T/C (compound 0.00999 µM) 107% and 90.8% and 92.9% | viability, T/C (compound 0.0316 µM) 72.1% and 87.1% and 89.7% | viability, T/C (compound 0.0999 µM) 90.8% and 64% and 84% | viability, T/C (compound 0.316 µM) 85.8% and 73.8% and 89%

CC1COCCN1c1cc(C2(O)CC3CCC(C2)O3)c2cnn(-c3ccn[nH]3)c2n1 (stereo unspecified)
inactive: viability, T/C (compound 0.0316 µM) 86.8% and 86.6% and 96.4% | viability, T/C (compound 0.1 µM) 57.4% and 66.7% (2×) | viability, T/C (compound 0.316 µM) 50.3% and 53.8% and 37.7% | viability, T/C (compound 1 µM) 51.1% and 54.5% and 70.1% | viability, T/C (compound 3.16 µM) 49.2% and 35.5% and 36.5% | viability, T/C (compound 10 µM) 44.9% and 33.9% and 48.4%
6.46 and 6.15 and 6.55: pIC50 (curve of compound)

Cc1cnc(CNC(=O)c2c(=O)c3ccc(N4CCCN(C)CC4)nc3n3c2sc2ccccc23)cn1
< 5.00: pIC50 (compound alone, run of 04/16/2024)
inactive: viability, T/C (compound 0.1 µM) 95.7% [middle of 12 runs] | viability, T/C (compound 0.316 µM) 96.5% [middle of 12 runs] | viability, T/C (compound 1 µM) 103% [middle of 12 runs] | viability, T/C (compound 10 µM) 91.5% [middle of 12 runs]
